Experimental data published in the supplement of paper PMC10307832.

Tests used:
Assay in all cases: relative viability (nuclei count vs DMSO), 5 days (fraction); higher = more cells survive
Masitinib + Pemetrexed = compound: Cc1ccc(NC(=O)c2ccc(CN3CCN(C)CC3)cc2)cc1Nc1nc(-c2cccnc2)cs1 [Masitinib] + Nc1nc2[nH]cc(CCc3ccc(C(=O)N[C@@H](CCC(=O)O)C(=O)O)cc3)c2c(=O)[nH]1 [Pemetrexed] (partner 0.2 µM)
Outline: (§1)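 Relative viability equals treated-well nuclei counts divided by vehicle-well nuclei counts. Counts came from 4× images of lung cancer cell lines grown in 1536-well plates for 5 days after pin-tool dosing on the day after seeding. Dosing used one drug alone or a fixed anchor-drug dose plus five library-drug doses (not always all listed) in √10 steps, and values are medians of duplicate plates.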

Masitinib + Bortezomib = compound: Cc1ccc(NC(=O)c2ccc(CN3CCN(C)CC3)cc2)cc1Nc1nc(-c2cccnc2)cs1 [Masitinib] + CC(C)C[C@H](NC(=O)[C@H](Cc1ccccc1)NC(=O)c1cnccn1)B(O)O [Bortezomib] (partner 0.002 µM)
Outline: as §1

Masitinib + Tozasertib = compound: Cc1ccc(NC(=O)c2ccc(CN3CCN(C)CC3)cc2)cc1Nc1nc(-c2cccnc2)cs1 [Masitinib] + Cc1cc(Nc2cc(N3CCN(C)CC3)nc(Sc3ccc(NC(=O)C4CC4)cc3)n2)n[nH]1 [Tozasertib] (partner 0.1 µM)
Outline: as §1

[1] = compound: CC1=CC(=CC=C1)NC2=NC(=CS2)C3=CC=NC=C3 + Cc1nc(Nc2ncc(C(=O)Nc3c(C)cccc3Cl)s2)cc(N2CCN(CCO)CC2)n1 [Dasatinib] (partner 0.075 µM)
Outline: as §1

| Cell Line | relative viability (Masitinib + Pemetrexed; first compound 0.01 µM) | relative viability (Masitinib + Pemetrexed; first compound 0.03162 µM) | relative viability (Masitinib + Pemetrexed; first compound 0.1 µM) | relative viability (Masitinib + Pemetrexed; first compound 0.3162 µM) | relative viability (Masitinib + Pemetrexed; first compound 1 µM) | relative viability (Masitinib + Bortezomib; first compound 0.01 µM) | relative viability (Masitinib + Bortezomib; first compound 0.03162 µM) | relative viability (Masitinib + Bortezomib; first compound 0.1 µM) | relative viability (Masitinib + Bortezomib; first compound 0.3162 µM) | relative viability (Masitinib + Bortezomib; first compound 1 µM) | relative viability (Masitinib + Tozasertib; first compound 0.01 µM) | relative viability (Masitinib + Tozasertib; first compound 0.03162 µM) | relative viability (Masitinib + Tozasertib; first compound 0.1 µM) | relative viability (Masitinib + Tozasertib; first compound 0.3162 µM) | relative viability (Masitinib + Tozasertib; first compound 1 µM) | relative viability ([1]; first compound 0.08 µM) | relative viability ([1]; first compound 0.253 µM) | relative viability ([1]; first compound 0.8 µM) | relative viability ([1]; first compound 2.53 µM) | relative viability ([1]; first compound 8 µM) |
| --- | --- | --- | --- | --- | --- | --- | --- | --- | --- | --- | --- | --- | --- | --- | --- | --- | --- | --- | --- | --- |
| HCC-15 | 0.226 | 0.24 | 0.212 | 0.203 | 0.226 | 0.714 | 1.09 | 0.847 | 1.21 | 1.04 | 0.491 | 0.426 | 0.433 | 0.387 | 0.243 | 0.467 | 0.469 | 0.589 | 0.499 | 0.53 |
| HCC-44 | 0.494 | 0.657 | 0.49 | 0.617 | 0.578 | 0.765 | 0.778 | 0.854 | 0.773 | 0.857 | 0.865 | 1.13 | 0.876 | 0.799 | 0.599 |  |  |  |  |  |
| HCC-78 | 0.933 | 0.877 | 0.887 | 0.987 | 0.893 | 0.49 | 0.419 | 0.515 | 0.406 | 0.394 | 0.338 | 0.446 | 0.423 | 0.447 | 0.454 |  | 0.376 | 0.398 | 0.379 | 0.523 |
| IA-LM |  |  |  |  |  | 0.85 | 0.975 | 0.836 | 0.681 | 1.05 |  |  |  |  |  |  |  |  |  |  |
| LK-2 | 0.291 | 0.34 | 0.31 | 0.281 | 0.217 |  |  |  |  |  | 0.177 | 0.167 | 0.177 | 0.158 | 0.165 |  | 0.241 | 0.421 |  | 0.327 |
| NCI-H358 | 0.16 | 0.169 | 0.167 | 0.163 | 0.178 |  |  |  |  |  | 0.118 | 0.0987 | 0.114 | 0.113 | 0.104 | 0.214 | 0.173 | 0.182 | 0.185 | 0.263 |
| NCI-H522 | 1.13 | 0.935 | 0.95 | 0.841 | 0.997 |  |  |  |  |  | 0.589 |  | 0.631 | 0.615 | 0.582 | 0.851 | 0.792 | 0.933 | 0.809 | 0.983 |
| NCI-H727 |  |  |  |  |  | 0.846 | 0.847 | 1.02 | 1.04 | 0.744 | 0.691 | 0.597 | 0.69 | 0.664 | 0.548 |  | 0.425 | 0.517 | 0.383 | 0.398 |
| NCI-H1299 |  |  |  |  |  | 0.985 | 1.05 | 0.995 | 1.01 | 1 |  |  |  |  |  |  |  |  |  |  |
| NCI-H1395 | 1.02 | 0.872 | 1.02 | 0.965 | 0.717 |  |  |  |  |  | 0.713 | 0.678 | 0.828 | 0.782 | 0.624 | 0.364 | 0.372 | 0.402 | 0.397 | 0.404 |
| NCI-H1563 | 0.714 | 0.741 | 0.835 | 0.729 | 0.701 | 0.778 | 0.789 | 0.905 | 0.81 | 0.713 |  |  |  |  |  | 0.48 | 0.41 | 0.498 | 0.404 | 0.434 |
| NCI-H1623 |  |  |  |  |  |  |  |  |  |  | 0.447 | 0.548 | 0.477 | 0.398 | 0.35 | 0.525 | 0.506 | 0.625 | 0.521 | 0.575 |
| NCI-H1648 | 0.635 | 0.891 | 0.75 |  | 0.7 |  |  |  |  |  | 0.477 |  | 0.452 | 0.397 | 0.431 |  |  |  |  |  |
| NCI-H1703 |  |  |  |  |  | 0.29 | 0.246 | 0.229 | 0.269 | 0.174 |  |  |  |  |  |  |  |  |  |  |
| NCI-H1792 | 0.846 | 0.525 | 0.93 | 0.548 | 0.707 | 0.759 | 0.387 | 0.945 | 0.994 | 1.01 |  |  |  |  |  | 0.689 |  | 0.832 | 0.54 | 0.63 |
| NCI-H1793 | 0.992 | 0.737 | 1 | 0.835 | 0.742 |  |  |  |  |  | 0.337 | 0.309 | 0.33 | 0.238 | 0.256 | 0.343 | 0.365 | 0.454 | 0.459 | 0.356 |
| NCI-H1944 |  | 0.618 |  | 0.572 | 0.566 |  |  |  |  |  |  | 0.214 |  | 0.205 | 0.247 | 0.202 | 0.208 | 0.328 | 0.243 | 0.282 |
| NCI-H2170 | 0.238 | 0.264 | 0.263 | 0.284 | 0.263 |  |  |  |  |  | 0.778 | 0.685 | 0.746 | 0.739 | 0.671 | 0.581 | 0.574 | 0.609 | 0.564 | 0.489 |
| NCI-H2342 | 0.741 | 0.72 | 0.831 | 0.746 | 0.781 |  |  |  |  |  | 0.464 | 0.51 | 0.523 | 0.514 | 0.469 | 0.306 | 0.303 | 0.302 | 0.278 | 0.311 |
| SK-MES-1 | 0.844 | 0.924 | 0.873 | 0.877 | 0.967 |  |  |  |  |  | 1.02 | 0.907 | 0.925 | 0.677 | 0.81 | 0.276 | 0.256 | 0.327 | 0.279 | 0.235 |
| SW 900 | 0.462 | 0.47 | 0.451 | 0.478 | 0.452 |  |  |  |  |  | 0.58 | 0.608 | 0.542 | 0.442 | 0.455 | 0.358 | 0.477 | 0.527 | 0.615 | 0.383 |
